Like-named read-outs stand apart in the source and are kept apart here.
Key:
NaPi-IIb [1] = target: T1, NaPi-IIb (Homo sapiens, UniProt O95436); conditions: duodenal and jejunal BBM; cited from earlier work
T1 sequence (O95436 1-690): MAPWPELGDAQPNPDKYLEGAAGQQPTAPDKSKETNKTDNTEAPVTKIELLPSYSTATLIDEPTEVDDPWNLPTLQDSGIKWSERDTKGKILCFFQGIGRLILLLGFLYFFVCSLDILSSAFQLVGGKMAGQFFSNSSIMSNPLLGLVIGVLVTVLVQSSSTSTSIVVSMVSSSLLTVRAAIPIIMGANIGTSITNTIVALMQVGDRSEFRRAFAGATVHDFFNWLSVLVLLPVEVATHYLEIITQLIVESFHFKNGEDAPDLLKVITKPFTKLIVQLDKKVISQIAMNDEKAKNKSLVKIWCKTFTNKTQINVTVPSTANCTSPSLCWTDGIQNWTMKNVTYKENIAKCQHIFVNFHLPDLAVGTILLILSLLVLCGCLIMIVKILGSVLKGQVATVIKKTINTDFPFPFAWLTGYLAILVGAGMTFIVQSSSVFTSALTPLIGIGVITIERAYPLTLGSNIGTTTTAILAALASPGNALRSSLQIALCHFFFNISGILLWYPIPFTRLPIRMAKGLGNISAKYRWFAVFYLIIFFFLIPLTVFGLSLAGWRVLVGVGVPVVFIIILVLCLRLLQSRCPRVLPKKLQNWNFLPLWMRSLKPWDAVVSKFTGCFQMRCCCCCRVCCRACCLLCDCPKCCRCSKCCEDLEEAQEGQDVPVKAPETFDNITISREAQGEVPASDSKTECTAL

[2] = human, CKD patients; cited from earlier work
[3] = intraperitoneal administration; cited from earlier work
[4] = animals; cited from earlier work
NaPi-IIb receptor = experiment: Expression of NaPi-IIb receptor in the small intestine over 5 weeks (FIG. 1); assay type: in vivo; conditions: nicotinamide 10 mg/kg body weight, conventional binder calcium carbonate 10 mg/kg, sevelamer 20 mg/kg body weight
NaPi-IIb [5] = conditions: intraperitoneal administration; cited from earlier work
[6] = Clinical study of serum phosphate levels in CKD patients on hemodialysis (FIG. 2-5); assay type: in vivo, human
From the text: A study has been undertaken wherein administration of a conventional phosphate binder as well as administration of nicotinamide has been compared with the administration of a combination of a phosphate binder and nicotinamide. For concrete numbers of the amount of patients tested as well as with regard to the phosphate binder and the dosing of phosphate binder and nicotinamide, further details can be taken from the following description, also with regard to the Figures.
These findings are derived from several clinical findings in which chronic renal insufficient patients underwent various medication regimes after an initial wash out phase over 4 weeks to eliminate and to control for pre-medication effects.

NaPi-IIa = target: T2, NaPi-IIa (Homo sapiens, UniProt Q06495); conditions: proximal renal tubule BBM (S1-S3); cited from earlier work
T2 sequence (Q06495 1-639): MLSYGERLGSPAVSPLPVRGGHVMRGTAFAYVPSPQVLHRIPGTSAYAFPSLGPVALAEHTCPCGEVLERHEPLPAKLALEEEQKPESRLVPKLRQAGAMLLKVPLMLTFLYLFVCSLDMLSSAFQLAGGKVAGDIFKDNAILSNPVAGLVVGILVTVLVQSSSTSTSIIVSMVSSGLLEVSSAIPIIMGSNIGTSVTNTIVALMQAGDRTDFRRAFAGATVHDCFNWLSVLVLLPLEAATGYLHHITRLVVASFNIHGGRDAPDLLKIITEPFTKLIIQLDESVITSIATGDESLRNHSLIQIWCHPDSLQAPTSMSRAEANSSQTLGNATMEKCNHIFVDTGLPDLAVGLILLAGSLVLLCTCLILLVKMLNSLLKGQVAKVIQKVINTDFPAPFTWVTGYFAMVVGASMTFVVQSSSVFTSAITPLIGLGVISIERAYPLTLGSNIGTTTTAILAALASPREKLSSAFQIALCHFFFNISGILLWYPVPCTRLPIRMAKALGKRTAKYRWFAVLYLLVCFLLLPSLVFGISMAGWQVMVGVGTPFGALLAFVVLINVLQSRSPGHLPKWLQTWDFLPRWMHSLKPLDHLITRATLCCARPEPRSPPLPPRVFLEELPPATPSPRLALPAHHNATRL

NaPi-IIc = target: T3, NaPi-IIc (Homo sapiens, UniProt Q8N130); conditions: proximal renal tubule BBM (S1); cited from earlier work
T3 sequence (Q8N130 1-599): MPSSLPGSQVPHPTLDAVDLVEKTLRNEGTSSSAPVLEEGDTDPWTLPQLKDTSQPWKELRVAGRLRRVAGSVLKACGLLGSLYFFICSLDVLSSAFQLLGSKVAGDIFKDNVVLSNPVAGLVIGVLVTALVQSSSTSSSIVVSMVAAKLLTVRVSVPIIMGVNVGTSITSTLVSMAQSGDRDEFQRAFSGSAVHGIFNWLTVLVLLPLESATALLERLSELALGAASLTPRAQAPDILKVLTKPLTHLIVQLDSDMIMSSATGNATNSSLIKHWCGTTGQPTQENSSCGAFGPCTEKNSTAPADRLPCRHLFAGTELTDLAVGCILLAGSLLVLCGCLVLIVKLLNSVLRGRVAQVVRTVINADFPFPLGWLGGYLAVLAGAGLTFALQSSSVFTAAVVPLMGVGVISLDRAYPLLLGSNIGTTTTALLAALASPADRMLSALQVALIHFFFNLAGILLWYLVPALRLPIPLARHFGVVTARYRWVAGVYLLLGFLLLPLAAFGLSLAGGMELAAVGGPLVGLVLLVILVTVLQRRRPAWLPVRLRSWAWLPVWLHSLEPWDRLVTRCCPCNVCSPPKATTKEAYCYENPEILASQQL

In the case of `NC(=O)c1cccnc1` [nicotinamide], the “Pharmacological regulators (direction of regulation) of NaPi-IIb” value (NaPi-IIb [1]) is given as “Nicotinamide (↓)”, the “lowering elevated phosphate levels” value [2] is given as “effective” and the “gastrointestinal absorption of phosphate” value [3] is given as “inhibits”. For the same compound, the “lowering elevated phosphate levels” value [4] was “effective”, the “expression of NaPi-IIb in the small intestine” value (NaPi-IIb receptor) was “downregulates” and the “expression of NaPi-IIb” value (NaPi-IIb [5]) was “blocks”. The “reduction of serum phosphate” value ([6]; combination of nicotinamide and known phosphate lowering agents versus dose-equivalent nicotinamide alone or binders alone) was “more profound and superior reduction”, the “patients achieving target levels <1.78 mmol/l” value ([6]; nicotinamide 250 to 1000 mg once daily as add on to previous conventional phosphate binder therapy, 9 weeks, n=126 ITT) was 69% and the “patients with phosphate levels <1.78 mmol/l” value ([6]; nicotinamide alone, 250 to 1000 mg oral once daily, 9 weeks, n=126 ITT) was 45%.
In the case of `O=C(O)P(=O)(O)O` [PFA, Phosphonoformic acid], the “Pharmacological regulators (direction of regulation) of NaPi-IIa” value (NaPi-IIa) is given as “PFA (↓)”, the “Pharmacological regulators (direction of regulation) of NaPi-IIb” value (NaPi-IIb [1]) is given as “PFA (↓)” and the “Pharmacological regulators (direction of regulation) of NaPi-IIc” value (NaPi-IIc) is given as “PFA (↓)”.

Reference: patent US20190381024A1, “NICOTINAMIDE FOR LOWERING PHOSPHATE LEVELS IN HYPERPHOSPHATEMIA” (MEDICE Arzneimittel Putter GmbH & Co. KG, priority 2015, published 2019)
